Patent publication US20230165870A1, “6,8-dioxa-3-azabicyclo[3.2.l]Octane Carboxylic Acids And Their Derivatives For Use In The Treatment Of Inflammations” (MINERVA S.R.L., priority 2020, published 2023)
Structures can show the parent of a compound that is named as a salt.

Experiments:
Type in all cases: cell-based
[1] = system: miR-101; test: miR-101 expression levels in HEK-293 TrkA cells following ADAR1 knock-down (Real-time PCR); details: 10 µM MT8, 60 minutes, FIG. 4
Method: In order to study the effect of MT8 on miR-101 regulatory mechanisms under metabolic stress conditions, HEK-293 TrkA cells were transfected with ADAR1-specific siRNA or control siRNA (scrambled) at the final concentration of 50 nM. After 48 hours, the cells were incubated in serum-free medium for 18 hours and stimulated with MT8 at a concentration of 10 µM for a further 60 minutes. The cells were lysed with TRIzol for the extraction of total RNA, used for the assay of miR-101 by Real Time PCR. The quantitative determination of miR-101 was performed using the 5 s ribosomal RNA gene as the housekeeping gene and the relative increase calculated applying the 2^-ΔCt method.

[2] = system: human monocytes stimulated with LPS; test: Production of IL-1β, TNF-α and IL-6 in human monocytes stimulated with LPS (Luminex multiplex assay); details: 50 ng/ml LPS, MT8 10 or 30 µM, 18 hours
Method: (§1) LipoPoliSaccharide (LPS) is an endotoxin that induces a strong immune reaction. In the presence of LPS, immune system cells such as monocytes and dendritic cells react by producing high amounts of inflammatory cytokines such as IL-1β, TNFα and IL-6. To test the ability of MT8 to modulate the production of these cytokines, human monocytes (isolated from buffy coat using anti-CD14 antibody) and human monocytes-derived dendritic cells (MDCs) were cultured at 10^6 cells/ml in complete medium and stimulated with 50 ng/ml of LPS, in the presence or absence of MT8 at a concentration of 10 or 30 µM. After 18 hours of incubation, the supernatants of both cell types were collected and the production of IL-1β, TNF-α, and IL-6 was evaluated by Luminex multiplex assay technology. […] In particular, MT8 was able to decrease the amount of IL-1β in a dose-dependent manner in both monocytes and dendritic cells. In the latter, the reduction recorded was over 50% (FIG. 1B), while in monocytes the reduction was about 17% (FIG. 1A). In any case, this reduction is statistically significant. Similar results were obtained regarding the production of TNF-α which, in the presence of MT8, is reduced by about 17% in monocytes (FIG. 1C) and by 19% in dendritic cells (FIG. 1D). Again, the reduction observed in the presence of MT8 is statistically significant. […] Also, in the latter case the reduction is statistically significant.

[3] = system: miR-101; test: Expression of miR-101 in human monocytes stimulated with LPS (Real-time PCR)
Method: In order to study the effect of MT8 on the activity of miR-101 in the pro-inflammatory setting, human monocytes isolated from buffy coat were stimulated with 1 µg/ml of LPS in the presence or absence of MT8 at the final concentration of 1 0 µM. After 60 minutes, the cells were lysed in TRIzol for the extraction of total RNA, which was then used for the quantification of miR-101 by Real-time PCR. […] The quantitative determination was performed using the 5 s ribosomal RNA gene as housekeeping and the relative increase calculated applying the 2^-ΔCt method.

[4] = system: ADAR1; test: Activation of the homodimeric complex of ADAR1 in HEK-293 TrkA cells (immunoprecipitation, Western Blot, densitometry); details: serum-free 18 hours, 10 µM MT8, 60 minutes, FIG. 2
Method: In order to study the effect of the MT8 compound on the ADAR1 enzyme, HEK-293 TrkA cells were cultured in serum-free medium for 18 hours and incubated with or without 10 µM of MT8 for another 60 minutes. The cells were then lysed in RIPA buffer (50 mM Tris-HCI, pH 7.4; 150 mM NaCl; 2 mM EDTA; 1 mM NaF; 1 mM sodium orthovanadate, 1% NP-40) and the proteins immunoprecipitated with Anti-ADAR1 antibody and subjected to biochemical analysis by Western Blot. Briefly, 500 µg of total protein was immunoprecipitated using a specific Anti-ADAR1 antibody. The immunoprecipitated product was loaded onto polyacrylamide gel and transferred onto the PVDF membrane. The membrane was then incubated with specific anti-ADAR1 antibodies for signal detection. The analysis allowed to highlight the presence of homodimeric complexes ADAR1/ADAR1 and of the monomeric forms of ADAR1 p150 and p110. The quantitative determination of the homodimer complex of ADAR1, performed by densitometry, was expressed as the ratio between the density of the band of the homodimer ADAR1/ADAR1 and that of the monomer ADAR1 p110.

[5] = system: human dendritic cells stimulated with LPS; test: Production of IL-1β, TNF-α and IL-6 in human monocytes-derived dendritic cells stimulated with LPS (Luminex multiplex assay); details: 50 ng/ml LPS, MT8 10 or 30 µM, 18 hours
Method: as §1

O=C(O)[C@H]1O[C@H]2O[C@@H]1C(=O)N(Cc1ccccc1)[C@@H]2Cc1ccccc1 [MT8, (1S, 4R, 5R, 7S) -3,4-dibenzyl-2-oxo-6,8-dioxa-3-azabicyclo[3.2.1]octane-7-carboxylic acid L-lysine Salt]
ability to decrease miR-101 expression in cells transfected with specific siRNA for ADAR1 ([1]; ADAR1-specific siRNA 50 nM): not | miR-101 expression level in scrambled siRNA-transfected cells ([1]; control (scrambled) siRNA 50 nM): marked decrease | reduction of IL-1β production ([2]; FIG. 1A): about 17% | reduction of TNF-α production ([2]; FIG. 1C): about 17% | reduction of IL-6 production ([2]; FIG. 1E): about 70% | time of exposure until decrease of miR-101 ([3]; cellular and tissue systems exposed to MT8): ≤ 1 h | miR-101 expression level compared to monocytes treated with LPS alone ([3]; human monocytes, 1 µg/ml LPS, MT8 1 0 µM, 60 minutes, FIG. 3): strong decrease | homodimeric (active) form of ADAR1, ratio homodimer ADAR1/ADAR1 to monomer ADAR1 p110, compared to untreated cells [4]: high increase | reduction of IL-1β production ([5]; FIG. 1B): over 50% | reduction of TNF-α production ([5]; FIG. 1D): 19% | reduction of IL-6 production ([5]; FIG. 1F): about 65%
